This note sets out measurements from patent publication US9034398B2, “Traditional Chinese drug comprising Danshen extracts and Sanqi extracts and use thereof” (TASLY Pharmaceutical Group Co., LTD., priority 2009, dated 2015).

SMILES strings stand for the structures.

In this experiment the test system is rat myocardial I/R model. The experiment can be described thus: Heart blood flow volume by laser Doppler perfusion imaging (LDPI). The class given is in vivo. The conditions noted are these: for heart blood flow volume regained compared to I/R group (LDPI images) / inhibitory effect on the decrease of the heart blood flow volume after I/R: 5 mg/kg BW/h intravenous drip; for heart blood flow volume regained compared to I/R group (LDPI images): at 30 min and 60 min after reperfusion, FIG. 4A; for inhibitory effect on the decrease of the heart blood flow volume after I/R: FIG. 5A. Here is the method:
The rats were anesthetized by intramuscularly injecting 20 wt % urethane (1.25 g/kg) and fixed in the supine position. Neck skin was incised and anterior cervical muscles were separated to expose the trachea. Tracheal intubation was performed. Another end of the intubation was attached to a Small Animal Ventilator (ALC-V8, Shanghai Aoteshai Biology Science and Technology Limited Company, Shanghai, China) so as to carry out pressure breathing under the following conditions: a respiratory ratio of 1:1, a respiratory frequency of 75 times/min and a tidal volume of 12 mL/kg. The rectal temperature, measured with YSI REF 401 (Yellow Spring, Ohio, USA), was maintained at 37 37.5° C. by using a thermal blanket. The chest was sterilized and opened at the intercostal space between 2nd 4th ribs near the left and right sternal border to expose the heart. The 3⁄8 curved needle threaded with 3-0 suture was used to pass through the site at 1 2 mm below the juncture of the pulmonary artery cone and the left atrial appendage. The suture was ligated. A polyethylene tubule was placed between the silk suture and myocardial tissue, the silk suture was […] to cause ischemia. Ligature was released 30 min later to establish an I/R model. Danshensu+I/R group (DLA+I/R group): a Danshensu aqueous solution (in normal saline, 1.25 mg/ml) was administrated at a dosage of 5 mg/kg BW/h by intravenous drip 20 min before the experiment and continued until the end of the entire experiment. Notoginsenoside R1+I/R group (R1+I/R group): a Notoginsenoside R1 aqueous solution (in normal saline, 1.25 mg/ml) was administrated at a dosage of 5 mg/kg BW/h by intravenous drip 20 min before the experiment and continued until the end of the entire experiment. Danshensu:R1(4:1)+I/R group (DR(4:1)+I/R group): an aqueous solution of Danshensu and Notoginsenoside R1 at a weight ratio of 4:1, dissolved in normal saline (1.25 mg/ml, namely, in the solution, the concentration of Danshensu is 1 mg/ml and the concentration of Notoginsenoside R1 is 0.25 mg/ml), was administrated at a dosage of 5 mg/kg BW/h (namely, in the total dosage, the dosage of Danshensu is 4 mg/kg BW/h and the dosage of Notoginsenoside R1 is 1 mg/kg BW/h) by intravenous drip 20 min before the experiment and continued until the end of the entire experiment. Danshensu:R1 (1:1)+I/R group (DR(1:1)+IR group): an aqueous solution of Danshensu and Notoginsenoside R1 at a weight ratio of 1:1, dissolved in normal saline (1.25 mg/ml, namely, in the solution, the concentration of Danshensu is 0.625 mg/ml and the concentration of Notoginsenoside R1 is 0.625 mg/ml), was administrated at a dosage of 5 mg/kg BW/h (namely, in the total dosage, the dosage of Danshensu is 2.5 mg/kg BW/h and the dosage of Notoginsenoside R1 is 2.5 mg/kg BW/h) by intravenous drip 20 min before the experiment and continued until the end of the entire experiment. […] Blood flow volumes on the surface of heart before ischemia, 5 min, 30 min after ischemia, and 5 min, 30 min, 60 min after reperfusion had been recorded by a computer-aided laser Doppler perfusion imager (LDPI) (PeriScan PIM3, […], Sweden). Images were measured and the data were evaluated with […] software. Change rate of blood flow volume of the heart was calculated by taking the blood flow volume before I/R as a baseline.

For `CC(C)=CCC[C@](C)(O[C@@H]1O[C@H](CO)[C@@H](O)[C@H](O)[C@H]1O)[C@H]1CC[C@]2(C)[C@@H]1[C@H](O)C[C@@H]1[C@@]3(C)CC[C@H](O)C(C)(C)[C@@H]3[C@@H](O[C@@H]3O[C@H](CO)[C@@H](O)[C@H](O)[C@H]3O[C@@H]3OC[C@@H](O)[C@H](O)[C@H]3O)C[C@]12C` [Notoginsenoside R1], the “heart blood flow volume regained compared to I/R group (LDPI images)” value is “regained to some extent”. In addition, for the setting “no time stated”, the “inhibitory effect on the decrease of the heart blood flow volume after I/R” value is recorded as “has not been observed to have significantly inhibitory effect”.
With `O=C(O)C(O)Cc1ccc(O)c(O)c1` (centres unmarked) [Danshensu, (3,4-dihydroxyphenyl)lactic acid], the “heart blood flow volume regained compared to I/R group (LDPI images)” value is “regained to some extent”. Further, under “at 5 min after reperfusion”, the “inhibitory effect on the decrease of the heart blood flow volume after I/R” value was “significantly inhibitory effect”. Moreover, the “amelioration of heart perfusion flow caused by I/R (summary)” value (rats, summary statement of the description) was “transiently ameliorate”.
